Data from ChEMBL document CHEMBL1201862, “PubChem BioAssay data set” (2004).
Activity calls are given as the source filed them.

Experiments:
Galanin receptor type 3 = target: T1, Galanin receptor type 3 (Homo sapiens, UniProt O60755); assay: Fluorescence-based cell-based primary high throughput dose response assay to identify antagonists of the Galanin Receptor 3 (GalR3).; type: functional
T1 sequence (O60755 whole entry): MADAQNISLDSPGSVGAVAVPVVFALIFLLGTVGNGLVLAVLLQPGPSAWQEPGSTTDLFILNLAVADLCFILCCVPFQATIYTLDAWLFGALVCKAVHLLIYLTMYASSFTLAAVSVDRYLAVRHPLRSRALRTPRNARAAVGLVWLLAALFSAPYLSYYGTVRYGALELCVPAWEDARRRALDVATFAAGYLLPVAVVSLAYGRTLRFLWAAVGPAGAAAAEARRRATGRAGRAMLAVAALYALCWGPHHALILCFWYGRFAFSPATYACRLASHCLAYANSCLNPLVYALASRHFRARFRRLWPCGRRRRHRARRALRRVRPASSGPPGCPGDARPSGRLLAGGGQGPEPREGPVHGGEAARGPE

cells [1] = type: functional, cell-based; conditions: HEK-CNG
[2] = Luminescence Cell-Based Dose Response to Identify Activators of Luciferase Translation or Activity in H4-C Neuroglioblastoma Cells. [Related pubchem assays: 1829 (Project Summary), 1814 (Primary HTS)]; type: functional
[3] = Luminescence Cell-Based Dose Confirmation to Identify Activators of 5'UTR Stem-Loop Driven Alpha-Synuclein mRNA Translation in H4 Neuroglioblastoma Cells. [Related pubchem assays: 1829 (Project Summary), 1814 (Primary HTS)]; type: functional
H4 = assay: Luminescence Cell-Based Dose Response HTS to Identify Activators of 5'UTR Stem-Loop Driven Prion Protein mRNA Translation in H4 Neuroglioblastoma Cells. [Related pubchem assays: 1829 (Project Summary), 1814 (Primary HTS)]; type: functional; conditions: Homo sapiens
[4] = Luminescence Cell-Based Dose Response to Identify Activators of 5'UTR Stem-Loop Driven Prion Protein mRNA Translation in H4-C Neuroglioblastoma Cells. [Related pubchem assays: 1829 (Project Summary), 1814 (Primary HTS)]; type: functional
cells [5] = assay: cells
[6] = target: T2, Oxysterols receptor LXR-beta (Homo sapiens, UniProt P55055); type: functional, cell-based;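 further: Cell-based luminescence dose-response assay of agonist activity at LXR, run as a confirmatory counterscreen to a daf-12 agonist screen; HEK293 cells with Gal4-LXR fusion and GAL4-driven luciferase reporter; agonist potency from rising luciferase signal of a Gal4-LXR reporter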
T2 sequence (P55055 whole entry): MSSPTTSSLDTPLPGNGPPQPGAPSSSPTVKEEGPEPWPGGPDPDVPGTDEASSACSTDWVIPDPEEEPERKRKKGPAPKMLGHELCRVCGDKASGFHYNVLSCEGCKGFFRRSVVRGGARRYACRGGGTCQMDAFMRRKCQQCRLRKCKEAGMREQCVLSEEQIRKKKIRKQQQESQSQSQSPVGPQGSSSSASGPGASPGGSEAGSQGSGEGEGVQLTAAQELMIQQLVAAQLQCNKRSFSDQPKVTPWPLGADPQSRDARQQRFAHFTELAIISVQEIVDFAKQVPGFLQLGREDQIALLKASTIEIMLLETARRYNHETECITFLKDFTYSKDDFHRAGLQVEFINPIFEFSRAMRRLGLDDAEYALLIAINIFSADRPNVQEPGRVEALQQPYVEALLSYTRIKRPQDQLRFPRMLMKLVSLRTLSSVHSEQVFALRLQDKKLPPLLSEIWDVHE

Paired box protein Pax-8 = Paired box protein Pax-8 (Homo sapiens, UniProt Q06710); assay: PAX8 transcriptional activity inhibition in RMG-I – RMG-I cells, luciferase, cherry-pick, dose response (AID 687027); type: functional, cell-based;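 further: luciferase reporter driven by Pax8 target thyroperoxidase promoter measured by SteadyGlo luminescence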
Paired box protein Pax-8, sequence (Q06710 whole entry): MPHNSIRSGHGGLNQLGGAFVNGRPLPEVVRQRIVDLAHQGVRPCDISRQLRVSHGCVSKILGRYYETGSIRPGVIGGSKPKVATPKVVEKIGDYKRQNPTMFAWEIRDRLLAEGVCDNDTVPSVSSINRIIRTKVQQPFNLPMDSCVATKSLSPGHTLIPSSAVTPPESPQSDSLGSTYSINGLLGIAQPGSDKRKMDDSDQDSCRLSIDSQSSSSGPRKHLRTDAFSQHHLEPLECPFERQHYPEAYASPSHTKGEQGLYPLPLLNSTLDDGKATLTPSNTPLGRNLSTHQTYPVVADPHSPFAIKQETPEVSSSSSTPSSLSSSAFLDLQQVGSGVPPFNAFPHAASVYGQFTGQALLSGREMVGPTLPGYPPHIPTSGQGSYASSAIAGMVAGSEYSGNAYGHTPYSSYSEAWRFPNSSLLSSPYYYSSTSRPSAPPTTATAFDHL

[7] = target: T3, Calpain-2 catalytic subunit (Sus scrofa, UniProt P43367); assay: m-calpain protease blockers, concentration series – biochemical, fluorogenic peptide substrate, dose response (AID 1420); type: functional
T3 sequence (P43367 whole entry): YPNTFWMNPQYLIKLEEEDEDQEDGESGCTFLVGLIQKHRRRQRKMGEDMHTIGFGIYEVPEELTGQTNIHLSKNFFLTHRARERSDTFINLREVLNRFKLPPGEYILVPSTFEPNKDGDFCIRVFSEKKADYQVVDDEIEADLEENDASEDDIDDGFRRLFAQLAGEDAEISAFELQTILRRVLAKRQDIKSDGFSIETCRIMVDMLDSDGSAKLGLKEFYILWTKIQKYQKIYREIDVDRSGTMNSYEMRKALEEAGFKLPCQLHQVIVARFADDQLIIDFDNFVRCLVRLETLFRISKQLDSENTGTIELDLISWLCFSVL

[8] = target: T4, Histone-lysine N-methyltransferase NSD2 (Homo sapiens, UniProt O96028); type: biochemical
T4 sequence (O96028 whole entry): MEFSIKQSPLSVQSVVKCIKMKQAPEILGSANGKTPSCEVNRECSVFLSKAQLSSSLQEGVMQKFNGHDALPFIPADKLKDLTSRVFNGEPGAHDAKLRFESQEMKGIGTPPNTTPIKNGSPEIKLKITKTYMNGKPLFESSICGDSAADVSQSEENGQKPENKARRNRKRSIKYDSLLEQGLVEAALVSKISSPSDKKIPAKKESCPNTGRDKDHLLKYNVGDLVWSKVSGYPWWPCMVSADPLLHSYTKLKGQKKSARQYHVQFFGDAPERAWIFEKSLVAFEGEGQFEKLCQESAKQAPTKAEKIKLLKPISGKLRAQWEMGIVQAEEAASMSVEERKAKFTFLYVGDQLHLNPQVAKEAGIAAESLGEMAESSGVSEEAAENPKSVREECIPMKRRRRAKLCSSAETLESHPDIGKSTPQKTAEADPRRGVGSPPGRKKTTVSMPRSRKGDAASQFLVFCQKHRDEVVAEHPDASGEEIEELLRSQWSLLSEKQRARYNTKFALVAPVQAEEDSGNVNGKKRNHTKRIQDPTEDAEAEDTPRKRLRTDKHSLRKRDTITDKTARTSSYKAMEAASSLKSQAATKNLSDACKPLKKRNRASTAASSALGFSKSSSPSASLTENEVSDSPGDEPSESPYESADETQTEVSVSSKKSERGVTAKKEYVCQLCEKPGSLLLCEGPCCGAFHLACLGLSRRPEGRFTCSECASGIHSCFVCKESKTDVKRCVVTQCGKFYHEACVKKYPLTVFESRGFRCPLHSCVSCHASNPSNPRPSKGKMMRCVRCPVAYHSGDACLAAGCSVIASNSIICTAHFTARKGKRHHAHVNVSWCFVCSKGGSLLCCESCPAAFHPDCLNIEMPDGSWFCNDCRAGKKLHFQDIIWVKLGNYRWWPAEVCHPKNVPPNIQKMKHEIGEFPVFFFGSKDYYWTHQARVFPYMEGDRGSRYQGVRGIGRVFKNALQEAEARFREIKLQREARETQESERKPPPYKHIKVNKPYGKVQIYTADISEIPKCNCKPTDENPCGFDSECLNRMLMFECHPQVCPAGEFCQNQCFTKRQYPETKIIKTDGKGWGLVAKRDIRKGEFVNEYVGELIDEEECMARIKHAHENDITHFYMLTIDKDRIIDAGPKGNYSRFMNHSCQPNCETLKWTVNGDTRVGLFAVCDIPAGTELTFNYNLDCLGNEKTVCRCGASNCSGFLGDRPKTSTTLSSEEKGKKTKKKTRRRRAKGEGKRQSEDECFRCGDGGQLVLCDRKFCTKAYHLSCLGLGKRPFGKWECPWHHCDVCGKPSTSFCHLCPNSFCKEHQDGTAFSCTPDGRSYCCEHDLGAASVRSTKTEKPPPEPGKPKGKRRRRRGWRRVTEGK

Fatty acid synthase [9] = target: T5, Fatty acid synthase (Homo sapiens, UniProt P49327); assay: inhibition of human FAS-TE enzyme activity – biochemical, endpoint fluorescence intensity, uHTS hits, dose response (AID 624327); type: functional;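 further: fluorescence from hydrolysis of an O-methyl fluorescein acyl ester substrate by the enzyme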
T5 sequence (P49327 whole entry): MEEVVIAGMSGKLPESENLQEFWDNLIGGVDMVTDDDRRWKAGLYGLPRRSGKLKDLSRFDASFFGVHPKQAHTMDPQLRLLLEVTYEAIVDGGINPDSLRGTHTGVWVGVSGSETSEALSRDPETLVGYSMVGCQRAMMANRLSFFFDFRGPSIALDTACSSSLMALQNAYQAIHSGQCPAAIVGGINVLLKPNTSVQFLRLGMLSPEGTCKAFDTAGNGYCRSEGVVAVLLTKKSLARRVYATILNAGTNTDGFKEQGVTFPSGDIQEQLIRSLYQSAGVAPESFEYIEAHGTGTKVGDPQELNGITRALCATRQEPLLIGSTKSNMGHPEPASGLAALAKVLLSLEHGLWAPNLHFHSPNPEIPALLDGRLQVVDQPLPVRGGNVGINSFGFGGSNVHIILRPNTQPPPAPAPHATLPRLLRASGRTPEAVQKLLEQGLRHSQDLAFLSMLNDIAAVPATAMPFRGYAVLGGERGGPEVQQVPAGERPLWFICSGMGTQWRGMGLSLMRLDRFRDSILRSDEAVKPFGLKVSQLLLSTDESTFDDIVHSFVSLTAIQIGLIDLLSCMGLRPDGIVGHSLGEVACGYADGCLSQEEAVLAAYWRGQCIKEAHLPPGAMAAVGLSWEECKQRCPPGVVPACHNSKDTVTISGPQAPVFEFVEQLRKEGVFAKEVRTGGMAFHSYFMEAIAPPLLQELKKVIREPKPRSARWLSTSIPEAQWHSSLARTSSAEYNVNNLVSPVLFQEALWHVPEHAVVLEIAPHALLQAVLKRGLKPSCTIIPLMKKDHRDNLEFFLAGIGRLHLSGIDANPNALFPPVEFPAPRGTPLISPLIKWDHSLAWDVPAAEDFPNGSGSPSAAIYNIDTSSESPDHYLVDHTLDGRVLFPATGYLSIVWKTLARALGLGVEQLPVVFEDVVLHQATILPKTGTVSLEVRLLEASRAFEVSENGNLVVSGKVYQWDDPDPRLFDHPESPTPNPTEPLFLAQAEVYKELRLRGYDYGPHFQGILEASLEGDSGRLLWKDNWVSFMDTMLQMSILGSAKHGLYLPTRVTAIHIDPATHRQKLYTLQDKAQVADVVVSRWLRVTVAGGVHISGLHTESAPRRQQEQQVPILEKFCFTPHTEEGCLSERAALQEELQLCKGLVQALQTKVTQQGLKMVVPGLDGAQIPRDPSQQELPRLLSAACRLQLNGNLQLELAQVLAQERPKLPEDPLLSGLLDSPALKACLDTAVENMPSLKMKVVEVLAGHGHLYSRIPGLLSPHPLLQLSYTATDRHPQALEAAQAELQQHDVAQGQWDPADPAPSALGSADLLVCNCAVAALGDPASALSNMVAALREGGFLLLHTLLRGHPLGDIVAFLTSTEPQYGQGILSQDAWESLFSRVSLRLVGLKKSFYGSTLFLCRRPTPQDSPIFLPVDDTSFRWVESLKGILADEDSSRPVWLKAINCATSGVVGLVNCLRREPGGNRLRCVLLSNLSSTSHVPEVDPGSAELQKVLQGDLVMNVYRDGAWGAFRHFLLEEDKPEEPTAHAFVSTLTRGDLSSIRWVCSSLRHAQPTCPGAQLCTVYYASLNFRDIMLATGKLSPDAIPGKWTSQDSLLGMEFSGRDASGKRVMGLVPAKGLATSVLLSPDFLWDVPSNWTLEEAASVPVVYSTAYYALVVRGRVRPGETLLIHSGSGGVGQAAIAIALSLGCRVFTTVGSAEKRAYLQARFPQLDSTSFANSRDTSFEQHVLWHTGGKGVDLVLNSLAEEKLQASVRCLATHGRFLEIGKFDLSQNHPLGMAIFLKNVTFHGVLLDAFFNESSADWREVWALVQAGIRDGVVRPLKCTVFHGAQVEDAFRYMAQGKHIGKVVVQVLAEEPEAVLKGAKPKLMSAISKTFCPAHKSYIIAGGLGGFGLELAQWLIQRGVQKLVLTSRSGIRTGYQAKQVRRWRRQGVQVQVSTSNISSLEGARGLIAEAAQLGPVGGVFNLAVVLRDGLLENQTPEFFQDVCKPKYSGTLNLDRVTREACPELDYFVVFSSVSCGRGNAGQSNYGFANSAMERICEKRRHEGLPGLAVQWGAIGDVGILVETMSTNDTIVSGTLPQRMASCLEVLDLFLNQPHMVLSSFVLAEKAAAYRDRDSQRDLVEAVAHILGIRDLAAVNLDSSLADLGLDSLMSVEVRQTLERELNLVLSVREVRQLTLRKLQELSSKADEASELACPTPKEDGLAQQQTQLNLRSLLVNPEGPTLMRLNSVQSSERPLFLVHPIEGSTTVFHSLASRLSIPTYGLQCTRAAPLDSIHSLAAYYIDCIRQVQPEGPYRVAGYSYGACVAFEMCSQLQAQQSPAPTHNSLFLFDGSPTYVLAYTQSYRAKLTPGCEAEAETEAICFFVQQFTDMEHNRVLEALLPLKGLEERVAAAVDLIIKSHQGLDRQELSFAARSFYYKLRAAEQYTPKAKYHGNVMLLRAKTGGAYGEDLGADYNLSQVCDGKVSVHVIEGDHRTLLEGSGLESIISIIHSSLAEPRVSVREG

Fatty acid synthase [10] = target: T5, Fatty acid synthase; assay: inhibition of human FAS-TE enzyme activity – biochemical, kinetic fluorescence intensity, dose response (AID 624326); type: functional;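 further: rate of fluorescence rise from hydrolysis of a fluorogenic O-methyl fluorescein ester substrate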
[11] = target: T6, Long-chain-fatty-acid--AMP ligase FadD28 (Mycobacterium tuberculosis, UniProt P9WQ59); assay: Fluorescence polarization aasay to screen for inhibitors that compete for the binding of FadD28 to a bisubstrate Measured in Biochemical System Using Plate Reader - 2147-01_Inhibitor_Dose_CherryPick_Activity.; type: functional, Mycobacterium tuberculosis H37Rv
T6 sequence (P9WQ59 whole entry): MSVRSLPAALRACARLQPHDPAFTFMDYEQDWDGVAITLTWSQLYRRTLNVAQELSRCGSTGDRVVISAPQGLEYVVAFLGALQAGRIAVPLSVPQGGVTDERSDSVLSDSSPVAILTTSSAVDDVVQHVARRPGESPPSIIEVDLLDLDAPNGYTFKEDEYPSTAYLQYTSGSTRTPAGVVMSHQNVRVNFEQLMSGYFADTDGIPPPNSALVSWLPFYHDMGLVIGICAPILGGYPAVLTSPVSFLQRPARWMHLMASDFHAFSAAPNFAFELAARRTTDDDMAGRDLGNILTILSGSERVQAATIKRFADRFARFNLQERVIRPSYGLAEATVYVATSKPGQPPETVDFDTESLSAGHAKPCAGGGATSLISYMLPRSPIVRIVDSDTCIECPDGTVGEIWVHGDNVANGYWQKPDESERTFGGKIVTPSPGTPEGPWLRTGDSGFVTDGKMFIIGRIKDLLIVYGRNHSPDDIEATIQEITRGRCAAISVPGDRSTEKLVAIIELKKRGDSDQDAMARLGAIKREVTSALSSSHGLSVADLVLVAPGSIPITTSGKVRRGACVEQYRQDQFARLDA

[12] = target: T7, DNA repair protein RAD52 homolog (Homo sapiens, UniProt P43351); type: functional, biochemical
T7 sequence (P43351 whole entry): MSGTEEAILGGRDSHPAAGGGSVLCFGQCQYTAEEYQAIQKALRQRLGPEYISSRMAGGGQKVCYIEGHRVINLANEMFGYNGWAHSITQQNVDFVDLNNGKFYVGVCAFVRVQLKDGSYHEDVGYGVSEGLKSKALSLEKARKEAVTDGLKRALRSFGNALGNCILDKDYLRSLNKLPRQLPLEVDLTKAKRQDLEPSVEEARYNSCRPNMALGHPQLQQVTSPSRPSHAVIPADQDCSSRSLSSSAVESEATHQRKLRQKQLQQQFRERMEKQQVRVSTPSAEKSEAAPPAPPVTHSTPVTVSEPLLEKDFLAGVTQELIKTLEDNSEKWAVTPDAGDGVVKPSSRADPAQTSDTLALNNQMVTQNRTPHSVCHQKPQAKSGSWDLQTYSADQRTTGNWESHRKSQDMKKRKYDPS

[13] = Luminescence Cell-Based Dose Response HTS to Identify Activators of Luciferase Translation or Activity in H4 […] Cells. [Related pubchem assays: 1829 (Project Summary), 1814 (Primary HTS)]; type: functional
[14] = target: T8, Heat shock factor protein 1 (Mus musculus, UniProt P38532); assay: enhancement of HSF1-driven luciferase signal – cell-based, NIH3T3, luminescence, dose retest, confirmation (AID 435004); type: functional;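 further: stress induced by proteasome inhibitor MG132 added 30 min after compound; luciferase reporter driven by HSF1 response element in NIH3T3 cells; actives raise luminescence as potentiators of the MG132 stress response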
T8 sequence (P38532 whole entry): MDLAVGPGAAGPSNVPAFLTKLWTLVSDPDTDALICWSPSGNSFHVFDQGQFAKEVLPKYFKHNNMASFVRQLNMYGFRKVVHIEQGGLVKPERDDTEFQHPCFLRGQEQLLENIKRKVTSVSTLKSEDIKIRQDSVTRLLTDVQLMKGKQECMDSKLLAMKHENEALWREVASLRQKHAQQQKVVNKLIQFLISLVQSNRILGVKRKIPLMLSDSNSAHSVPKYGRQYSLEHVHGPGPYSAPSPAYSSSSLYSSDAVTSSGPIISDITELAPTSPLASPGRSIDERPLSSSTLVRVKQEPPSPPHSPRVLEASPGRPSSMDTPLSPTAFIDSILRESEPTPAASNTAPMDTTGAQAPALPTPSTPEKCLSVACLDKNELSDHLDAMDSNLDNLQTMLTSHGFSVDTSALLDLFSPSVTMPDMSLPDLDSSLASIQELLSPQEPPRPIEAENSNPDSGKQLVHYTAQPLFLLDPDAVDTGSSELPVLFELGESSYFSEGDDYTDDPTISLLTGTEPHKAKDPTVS

CCOC(=O)Cn1nnnc1C(C(C)C)N(Cc1cccs1)Cc1cc2cc(C)ccc2nc1O (stereo not drawn)
IC50 (Galanin receptor type 3): > 29.9 µM (inactive) | EC50 (cells [1]): > 29.9 µM (inactive)

O=C(Nc1ccccc1)N1CC=C(c2ccccc2)CC1
EC50 [2]: 0.237 µM (active) | EC50 [3]: 0.272 µM (active) | EC50 (H4): < 0.1 µM (active) | EC50 [4]: 0.376 µM (active)

c1ccc2c(c1)COc1c3cc4c(cc3nn1-2)OCO4
EC50 (cells [5]): > 67.6 µM (inactive) | EC50 [6]: > 67.6 µM (inactive)

CC1OC(OC2C=C3CCC4C(CCC5(C)C(c6ccc(=O)oc6)CCC45O)C3(C)CC2)C(O)C(OC2OC(CO)C(O)C(O)C2O)C1O (stereo not drawn)
AC50 (Paired box protein Pax-8): < 0.26 µM (active) | IC50 (Galanin receptor type 3): > 29.9 µM (inactive) | EC50 (cells [1]): > 29.9 µM (inactive)

O=C1c2cccc(Sc3ccccc3)c2C(=O)c2c(Sc3ccccc3)cccc21
IC50 [7]: 6.16 µM (not active) | AC50 [8]: 5.27 µM (active)

Cc1cccc(C)c1Cn1c(C)c(C(=O)NCc2ccc([N+](=O)[O-])cc2)sc1=O
IC50 (Fatty acid synthase [9]): 6.75 µM (active) | IC50 (Fatty acid synthase [10]): 4.48 µM (active) | AC50 [11]: 20.5 µM (active)

CN1CCN(c2ccc(NC(=O)c3cc(S(N)(=O)=O)ccc3N3CCOCC3)cc2)CC1
AC50 [12]: 8.83 µM (active)

FC(F)(F)c1cccc(/C=N/NC(=S)NC2CCCCC2)c1
IC50 (Galanin receptor type 3): 3.19 µM (active) | EC50 (cells [1]): > 29.9 µM (inactive)

O=C(Nc1nccs1)c1c(O)nc2c(c1O)CCCC2
EC50 [13]: 0.999 µM (active) | EC50 [2]: 0.446 µM (active) | EC50 [3]: 0.475 µM (active) | EC50 (H4): < 0.1 µM (active) | EC50 [4]: 0.504 µM (active)

c1ccc(-c2csc(Nc3ccc4c(c3)OCO4)n2)cc1
EC50 (cells [5]): > 67.6 µM (inactive) | EC50 [6]: > 67.6 µM (inactive)

C[C@H](NCCc1ccc(O)cc1)[C@H](O)c1ccc(O)cc1 [RITODRINE]
IC50 (Galanin receptor type 3): 0.932 µM (active) | EC50 (cells [1]): > 29.9 µM (inactive)

Nc1nn(-c2cccc(F)n2)cc1-c1ccc(Cl)cc1
EC50 (cells [5]): > 67.6 µM (inactive) | EC50 [14]: > 260 µM (inconclusive) | EC50 [6]: > 67.6 µM (inactive)

COc1c(C(=O)Nc2nnc(C3CC3)s2)csc1Cl
EC50 (cells [5]): > 67.6 µM (inactive) | EC50 [6]: > 67.6 µM (inactive)
